Data: patent US20100063070A1, “COMBINATION FOR USE IN THE TREATMENT OF INFLAMMATORY DISORDERS” (priority 2006, published 2010)

Key:
[1] = tested on: bone marrow-derived cultured mouse mast cells (mMC); test: Inhibition of mast cell interferon-γ formation (IgE-receptor cross-linking with TNP-BSA, Cytometric Bead Array); assay type: cell-based; details: for mean IFN-γ concentration in supernatants: mMC stimulated with TNP-BSA for 24 hours, n=2
Experimental: Bone marrow-derived cultured mouse mast cells (mMC) were obtained by culturing bone marrow cells from female C57BL/6 mice. The bone marrow cells (from mouse femurs flushed with PBS) were cultured (37° C./5% CO2) in 10% X-63 enriched conditioned RPMI 1640, supplemented with 10% heat-inactivated fetal bovine serum, 4 mM L-glutamine, 50 μM 2-mercaptoethanol, 1 mM sodium pyruvate, 0.1 mM non-essential amino acids, 10 mM Hepes, 100 units/mL penicillin and 100 μg/mL streptomycin. Development of mast cells was confirmed by toluidine blue staining. The experiments were performed after 6 to 8 weeks of culture. To activate the mMC through cross-linking of cell-surface IgE-receptors, the cultured mMC were initially sensitized for 90 minutes at 37° C. (5% CO2) with a monoclonal mouse anti-TNP IgE-antibody (IgE1-b4, ATCC, Rockville, Md., USA), used as a 15% hybridoma supernatant. Cells were then subjected to two washings with PBS and re-suspended in RPMI-1640 medium supplemented with 0.2% bovine serum albumin (BSA) before the cells (0.5 mL of medium with 1×10^6 cells per mL) were activated by addition of TNP-BSA (Biosearch Technologies, San Francisco, Calif.) with a coupling ratio of 9/1 (the final TNP-BSA concentration was 100 ng/mL). The incubation (37° C./5% CO2) with TNP-BSA was 24 hours. Before the incubation with TNP-BSA, some cells were treated/incubated (37° C./5% CO2) with the test drugs pemirolast (potassium salt purchased from American Custom Chemicals Corporation, San Diego, Calif., USA) and/or rosuvastatin (extracted and purified from commercially available Crestor® tablets and isolated as calcium salt as described in Bioorganic & Medicinal Chemistry, Vol. 5, No. 5, pp 437-444, 1997 by adding CaCl2) 30 minutes prior to addition of TNP-BSA (stock solutions of the drugs were made in sterile saline). For comparison, some experiments were performed without the drug treatments. After the incubations with TNP-BSA, the samples were centrifuged at 4° C. to spin down the cells and the supernatants analysed with regard to content of mouse IFN-γ using the BD™ Cytometric Bead Array (CBA) Mouse Inflammation Kit from BD Biosciences Pharmingen, San Diego, USA (the kit was used according to the manufacturer's instructions).

[2] = tested on: human macrophage cell-line MonoMac-6 (MM6); test: Inhibition of macrophage proliferation (WST-1 reagent); assay type: cell-based; details: 48 hours, n=5; for inhibition at 100 µM / inhibition at 10 µM / inhibition at 30 µM: Homo sapiens; for inhibition at 100 µM: MONO-MAC-6, 100 μM drug alone; for inhibition at 10 µM: MONO-MAC-6, 10 μM drug alone; for inhibition at 30 µM: MONO-MAC-6, 30 μM drug alone
Experimental: Cells from the human macrophage cell-line MonoMac-6 (MM6) (Ziegler-Heitbrock et al, Int. J. Cancer, 41, 456 (1988)) were cultured (37° C./5% CO2) in RPMI-1640 medium supplemented with 1 mM sodium pyruvate, 1× nonessential amino acids, 1-100 μg/mL insulin, 1 mM oxalacetic acid, 100 units/mL penicillin, 100 μg/mL streptomycin and 10% (v/v) fetal bovine serum. At the start of the experiment, MM6 cells were seeded in 96-well plates at a density of 1×10^5 cells/mL (100 μl per well). Proliferation of the MM6 cells was measured using the Cell Proliferation Reagent WST-1 (Roche Diagnostics Scandinavia AB, Bromma, Sweden) or by cell counting using a microscope. The WST-1 reagent is designed to be used for spectrophotometric quantification of e.g. cell growth in proliferation assays and was used according to the manufacturers' instructions. The wavelength for measuring absorbance was 450 nm and the absorbance of all untreated control cells exposed to the WST-1 reagent was between 1.0 and 2.5. Stock solutions of pemirolast (potassium salt; see Example 19 above) and rosuvastatin (sodium salt; see Example 19 above) were made in sterile saline.
Untreated MM6 cells increased from 1×10^5 cells/mL at the start of the experiment to 1.4×10^5±0.06×10^5 cells/mL and 2.3×10^5±0.10×10^5 cells/mL after 24 and 48 hours, respectively (mean values±sem, n=4 for each of the three time-points). The effects of pemirolast and/or rosuvastatin (added at the start of the experiments) on MM6 cell proliferation were studied 48 hours after start of the experiments using the WST-1 reagent described above.
The procedure described in Example 20 was repeated for atorvastatin (sodium salt; received as atorvastatin calcium as a gift from Biocon, Ltd., Bangalore, India and converted into sodium salt by firstly converting the calcium salt into the free acid by addition of aqueous hydrochloric acid and then, after isolation via extraction, adding one equivalent of aqueous NaOH).

[3] = tested on: zymosan-induced PMN leukocyte accumulation; test: Zymosan-induced peritonitis in the mouse (PMN leukocytes in peritoneal lavage fluid); assay type: in vivo; details: NMRI mice; 5 hours after i.p. zymosan; pemirolast 0.5 mg i.p. with zymosan; atorvastatin sodium 0.35 mg 24 hours and 90 minutes before
Experimental: The atorvastatin injection was given 24 hours before zymosan was administered i.p. and the atorvastatin injection was given 90 minutes before zymosan was administered […]. Prior to injection, atorvastatin was dissolved at 1 mg/mL in sterile PBS using sonication and warming as needed. […] The number of polymorphonuclear (PMN) leukocytes per mL of lavage fluid was counted by light microscopy (using standard morphological criteria) following staining of nuclei with Tü's solution. Lavage fluid from non-inflamed peritoneal cavities from untreated animals provided baseline levels of PMN leukocytes.

| SMILES | mean IFN-γ concentration in supernatants ([1]; 3 μM drug alone) [µg/mL] | reduction of IFN-γ compared with the untreated cells ([1]; 30 μM drug alone, TNP-BSA 24 hours) | mean IFN-γ concentration in supernatants ([1]; 30 μM drug alone) [µg/mL] | inhibition of MM6 proliferation ([2]; 10 μM drug alone) | inhibition at 100 µM [2] [%] | reduction of zymosan-induced PMN leukocyte accumulation compared with untreated animals [3] [%] | inhibition at 10 µM [2] [%] | inhibition at 30 µM [2] [%] |
| --- | --- | --- | --- | --- | --- | --- | --- | --- |
| Cc1cccn2c(=O)c(-c3nnn[nH]3)cnc12 [pemirolast] | 2.00 | about 3% | 1.74 | very similar to that of 100 μM of pemirolast | 9.4 | 10.1 |  |  |
| CC(C)c1c(C(=O)Nc2ccccc2)c(-c2ccccc2)c(-c2ccc(F)cc2)n1CC[C@@H](O)C[C@@H](O)CC(=O)O [atorvastatin] |  |  |  |  | 54.4 | 25.9 | 19.9 | 27 |
| CC(C)c1nc(N(C)S(C)(=O)=O)nc(-c2ccc(F)cc2)c1/C=C/[C@@H](O)C[C@@H](O)CC(=O)O [rosuvastatin] | 2.26 |  | 1.88 |  | 66.9 |  | 16.6 | 22.7 |
